Measurements reported in ChEMBL document CHEMBL5226325, “Optimization of a Screening Hit toward M2912, an Oral Tankyrase Inhibitor with Antitumor Activity in Colorectal Cancer Models” (J Med Chem, 2021).
Active and inactive are the calls of the source. The calls are words filed in the database; no cut-off is given here.

How the values were obtained:
[1] = target: T1, Poly [ADP-ribose] polymerase tankyrase-2 (Homo sapiens, UniProt Q9H2K2); experiment: Inhibition of TNKS2 (unknown origin)
T1 sequence (Q9H2K2 whole entry): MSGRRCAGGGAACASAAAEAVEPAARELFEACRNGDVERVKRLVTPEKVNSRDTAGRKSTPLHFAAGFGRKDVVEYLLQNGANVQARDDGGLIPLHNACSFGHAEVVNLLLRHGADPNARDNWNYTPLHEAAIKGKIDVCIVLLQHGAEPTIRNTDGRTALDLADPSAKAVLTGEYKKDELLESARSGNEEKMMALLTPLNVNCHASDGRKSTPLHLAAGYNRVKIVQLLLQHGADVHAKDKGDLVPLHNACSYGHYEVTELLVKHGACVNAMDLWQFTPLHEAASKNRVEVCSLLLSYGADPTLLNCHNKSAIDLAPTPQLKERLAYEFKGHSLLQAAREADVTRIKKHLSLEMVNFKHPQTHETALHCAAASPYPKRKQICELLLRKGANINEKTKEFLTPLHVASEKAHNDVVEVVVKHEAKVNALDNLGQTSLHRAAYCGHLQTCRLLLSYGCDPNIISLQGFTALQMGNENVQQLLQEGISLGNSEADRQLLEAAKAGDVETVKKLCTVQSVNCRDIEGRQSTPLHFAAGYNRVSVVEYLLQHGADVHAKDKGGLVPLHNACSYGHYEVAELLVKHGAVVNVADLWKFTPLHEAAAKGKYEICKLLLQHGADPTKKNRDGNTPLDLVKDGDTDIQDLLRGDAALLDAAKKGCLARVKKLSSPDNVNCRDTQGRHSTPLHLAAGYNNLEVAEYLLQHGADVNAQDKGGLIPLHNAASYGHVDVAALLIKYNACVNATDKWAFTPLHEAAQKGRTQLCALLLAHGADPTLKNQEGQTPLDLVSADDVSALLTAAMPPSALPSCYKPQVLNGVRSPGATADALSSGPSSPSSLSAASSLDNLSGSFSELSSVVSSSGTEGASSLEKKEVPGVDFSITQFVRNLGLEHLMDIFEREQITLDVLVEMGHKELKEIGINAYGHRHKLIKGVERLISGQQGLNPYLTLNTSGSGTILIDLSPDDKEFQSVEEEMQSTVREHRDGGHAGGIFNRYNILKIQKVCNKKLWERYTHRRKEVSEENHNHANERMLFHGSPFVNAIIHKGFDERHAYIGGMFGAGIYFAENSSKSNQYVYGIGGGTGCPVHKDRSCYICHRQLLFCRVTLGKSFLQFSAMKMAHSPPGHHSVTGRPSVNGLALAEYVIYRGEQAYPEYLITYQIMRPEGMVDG

[2] = Half life in dog; assay type: ADME, Canis lupus familiaris; settings: in vivo
[3] = Volume of distribution at steady state in monkey; assay type: ADME, Macaca mulatta; settings: rhesus monkey, in vivo; read-out: Vdss
[4] = Hepatic blood flow in rat; assay type: ADME
[5] = Oral bioavailability in monkey; assay type: ADME, organism-based, Macaca mulatta; settings: rhesus monkey, in vivo
[6] = Half life in rat; assay type: ADME; settings: in vivo
[7] = Half life in human; assay type: ADME
[8] = Half life in mouse; assay type: ADME, organism-based; settings: in vivo
[9] = target: Protein mono-ADP-ribosyltransferase PARP11 (Homo sapiens, UniProt Q9NR21); experiment: Inhibition of N-terminal GST-tagged/C-terminal 6xHis-tagged human recombinant PARP11 (8 to 338 residues) expressed in Sf9 insect cells by chemiluminescence assay
Adenosine receptor A3 = Adenosine receptor A3 (Homo sapiens, UniProt P0DMS8); experiment: Inhibition of A3 adenosine receptor (unknown origin); assay type: toxicity
[10] = target: T1, Poly [ADP-ribose] polymerase tankyrase-2; experiment: Inhibition of TNKS2 (unknown origin) using biotinylated NAD as substrate assessed as inhibition of autoPARsylation activity incubated for 1 hr by ELISA
[11] = Hepatic blood flow in dog; assay type: ADME, Canis lupus familiaris
[12] = Unbound fraction in human plasma; assay type: ADME, cell-free
[13] = In vivo inhibition of Wnt pathway in Hsd athymic nude mouse xenografted with human DLD1 cells assessed as increase in axin2 protein level in tumor at 10 to 30 mg/kg, po administered as single dose and measured after 18 hrs; assay type: functional, organism-based; settings: DLD-1, dose 10-30 mg/kg
[14] = target: Protein mono-ADP-ribosyltransferase PARP15 (Homo sapiens, UniProt Q460N3); experiment: Inhibition of N-terminal GST-tagged human recombinant PARP15 (221 to 444 residues) expressed in Escherichia coli by chemiluminescence assay
SW480 = experiment: Cytotoxicity against human SW480 cells assessed as reduction in cell growth at 0.01 to 10 uM incubated for 14 days by resazurin dye based assay; assay type: functional; settings: dose 0.01-10 µM, time 14.0 day
[15] = Hepatic blood flow in human; assay type: ADME
[16] = Oral bioavailability in dog; assay type: ADME, organism-based, Canis lupus familiaris; settings: in vivo
[17] = Hepatic blood flow in mouse; assay type: ADME, organism-based
[18] = Toxicity in mouse assessed as histopathological changes in gastrointestinal tract at 50 mg/kg, po administered twice daily via gavage; assay type: organism-based; settings: in vivo
[19] = target: Protein mono-ADP-ribosyltransferase PARP14 (Homo sapiens, UniProt Q460N5); experiment: Inhibition of N-terminal GST/6xHis/TEV-tagged human recombinant PARP14 (1470 to 1801 residues) expressed in Sf9 insect cells by chemiluminescence assay
[20] = Oral bioavailability in mouse; assay type: ADME, organism-based; settings: in vivo
[21] = In vivo inhibition of Wnt pathway in Hsd athymic nude mouse xenografted with human DLD1 cells assessed as increase in tankyrase protein level in tumor at 10 to 30 mg/kg, po administered as single dose and measured after 2 to 8 hrs; assay type: functional, organism-based; settings: DLD-1, dose 10-30 mg/kg, time 2-8 hrs
[22] = Hepatic blood flow in monkey; assay type: ADME, Macaca mulatta; settings: rhesus monkey
DLD-1 = experiment: Cytotoxicity against human DLD-1 cells assessed as reduction in cell growth at 0.01 to 10 uM incubated for 14 days by resazurin dye based assay; assay type: functional; settings: dose 0.01-10 µM, time 14.0 day
[23] = target: Poly [ADP-ribose] polymerase 1 (Homo sapiens, UniProt P09874); experiment: Inhibition of N-terminal GST-tagged human recombinant PARP1 (2 to 1014 residues) expressed in Sf9 insect cells by chemiluminescence assay
SW-620 = experiment: Cytotoxicity against human SW620 cells assessed as reduction in cell growth at 0.01 to 10 uM incubated for 14 days by resazurin dye based assay; assay type: functional; settings: dose 0.01-10 µM, time 14.0 day

Poly [ADP-ribose] polymerase 1, sequence (P09874 whole entry, the tested form may be a part): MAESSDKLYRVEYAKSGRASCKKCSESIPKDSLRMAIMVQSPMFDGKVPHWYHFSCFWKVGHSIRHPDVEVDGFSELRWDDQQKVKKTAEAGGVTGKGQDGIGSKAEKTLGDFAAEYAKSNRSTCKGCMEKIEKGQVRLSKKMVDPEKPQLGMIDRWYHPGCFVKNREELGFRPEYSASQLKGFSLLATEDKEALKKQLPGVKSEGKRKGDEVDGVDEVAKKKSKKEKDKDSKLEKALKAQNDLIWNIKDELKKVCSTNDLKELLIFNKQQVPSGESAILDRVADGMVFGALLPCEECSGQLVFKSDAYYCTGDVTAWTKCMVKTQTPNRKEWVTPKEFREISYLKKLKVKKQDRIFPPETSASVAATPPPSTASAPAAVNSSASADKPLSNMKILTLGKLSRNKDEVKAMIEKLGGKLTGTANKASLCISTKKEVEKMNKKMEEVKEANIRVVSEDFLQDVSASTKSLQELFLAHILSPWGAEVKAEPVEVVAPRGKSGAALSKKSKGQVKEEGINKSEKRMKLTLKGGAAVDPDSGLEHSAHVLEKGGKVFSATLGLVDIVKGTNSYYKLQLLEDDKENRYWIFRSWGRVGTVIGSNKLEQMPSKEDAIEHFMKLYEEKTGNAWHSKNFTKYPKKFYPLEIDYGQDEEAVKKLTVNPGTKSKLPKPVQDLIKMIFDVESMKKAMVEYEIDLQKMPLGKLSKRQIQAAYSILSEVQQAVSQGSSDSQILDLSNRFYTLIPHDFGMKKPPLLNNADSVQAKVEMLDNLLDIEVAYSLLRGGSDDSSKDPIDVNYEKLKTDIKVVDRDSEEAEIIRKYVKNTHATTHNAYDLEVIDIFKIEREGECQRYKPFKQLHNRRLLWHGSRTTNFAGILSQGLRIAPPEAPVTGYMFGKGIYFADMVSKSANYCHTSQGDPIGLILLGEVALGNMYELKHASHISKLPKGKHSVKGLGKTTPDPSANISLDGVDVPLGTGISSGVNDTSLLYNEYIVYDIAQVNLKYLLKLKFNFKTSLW
Protein mono-ADP-ribosyltransferase PARP14, sequence (Q460N5 whole entry, the tested form may be a part): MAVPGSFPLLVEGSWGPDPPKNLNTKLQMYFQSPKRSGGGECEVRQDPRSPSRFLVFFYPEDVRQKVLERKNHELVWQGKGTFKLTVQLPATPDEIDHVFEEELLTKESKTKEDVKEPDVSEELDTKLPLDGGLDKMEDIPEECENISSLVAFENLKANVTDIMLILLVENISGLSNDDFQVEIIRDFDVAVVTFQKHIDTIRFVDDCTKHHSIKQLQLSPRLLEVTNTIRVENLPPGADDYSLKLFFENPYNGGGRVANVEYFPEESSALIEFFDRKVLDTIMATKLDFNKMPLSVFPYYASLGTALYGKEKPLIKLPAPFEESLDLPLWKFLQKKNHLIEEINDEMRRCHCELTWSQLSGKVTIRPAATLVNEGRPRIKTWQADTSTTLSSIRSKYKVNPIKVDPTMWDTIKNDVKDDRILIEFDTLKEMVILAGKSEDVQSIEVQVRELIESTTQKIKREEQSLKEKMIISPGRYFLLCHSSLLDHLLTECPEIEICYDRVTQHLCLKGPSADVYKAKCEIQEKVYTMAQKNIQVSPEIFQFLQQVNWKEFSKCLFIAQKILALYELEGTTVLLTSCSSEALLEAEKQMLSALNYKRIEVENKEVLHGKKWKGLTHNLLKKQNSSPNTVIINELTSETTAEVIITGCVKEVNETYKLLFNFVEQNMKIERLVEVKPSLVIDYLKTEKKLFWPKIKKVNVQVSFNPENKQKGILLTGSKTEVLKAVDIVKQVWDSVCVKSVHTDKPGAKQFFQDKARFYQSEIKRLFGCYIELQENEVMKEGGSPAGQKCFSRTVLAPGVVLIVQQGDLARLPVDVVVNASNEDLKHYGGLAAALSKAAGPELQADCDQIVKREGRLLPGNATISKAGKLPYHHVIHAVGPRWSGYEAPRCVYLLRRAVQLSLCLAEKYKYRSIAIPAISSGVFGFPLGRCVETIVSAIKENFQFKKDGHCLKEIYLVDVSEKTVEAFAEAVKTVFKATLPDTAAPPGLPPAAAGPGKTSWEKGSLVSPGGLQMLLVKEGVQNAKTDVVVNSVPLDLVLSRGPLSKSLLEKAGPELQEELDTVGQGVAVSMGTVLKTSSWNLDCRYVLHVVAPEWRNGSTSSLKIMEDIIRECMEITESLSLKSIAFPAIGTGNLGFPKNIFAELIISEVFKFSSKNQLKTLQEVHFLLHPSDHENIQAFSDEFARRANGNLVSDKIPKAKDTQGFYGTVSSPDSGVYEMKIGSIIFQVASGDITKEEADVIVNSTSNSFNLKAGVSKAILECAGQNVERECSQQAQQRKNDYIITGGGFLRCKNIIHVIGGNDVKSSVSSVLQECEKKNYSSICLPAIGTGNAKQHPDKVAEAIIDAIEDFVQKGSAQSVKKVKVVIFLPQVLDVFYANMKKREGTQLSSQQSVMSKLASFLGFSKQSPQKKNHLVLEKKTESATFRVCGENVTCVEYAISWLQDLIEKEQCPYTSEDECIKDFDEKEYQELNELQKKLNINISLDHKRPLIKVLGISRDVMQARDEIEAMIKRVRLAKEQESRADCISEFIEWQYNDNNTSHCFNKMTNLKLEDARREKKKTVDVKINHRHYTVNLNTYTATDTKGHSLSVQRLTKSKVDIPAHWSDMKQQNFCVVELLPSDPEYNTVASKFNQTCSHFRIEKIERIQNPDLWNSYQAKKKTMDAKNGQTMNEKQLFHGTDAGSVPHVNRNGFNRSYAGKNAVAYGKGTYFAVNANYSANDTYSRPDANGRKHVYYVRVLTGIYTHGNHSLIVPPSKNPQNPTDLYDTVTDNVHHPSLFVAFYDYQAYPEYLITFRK
Protein mono-ADP-ribosyltransferase PARP11, sequence (Q9NR21 whole entry, the tested form may be a part): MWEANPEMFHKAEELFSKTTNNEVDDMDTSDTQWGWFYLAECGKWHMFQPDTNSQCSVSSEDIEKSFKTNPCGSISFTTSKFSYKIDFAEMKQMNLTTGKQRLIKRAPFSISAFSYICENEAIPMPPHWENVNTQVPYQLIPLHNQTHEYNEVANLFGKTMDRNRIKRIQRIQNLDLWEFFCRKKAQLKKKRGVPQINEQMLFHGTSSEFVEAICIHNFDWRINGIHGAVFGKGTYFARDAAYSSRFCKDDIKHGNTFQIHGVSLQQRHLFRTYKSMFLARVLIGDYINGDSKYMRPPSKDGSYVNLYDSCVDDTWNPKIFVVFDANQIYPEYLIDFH
Adenosine receptor A3, sequence (P0DMS8 whole entry): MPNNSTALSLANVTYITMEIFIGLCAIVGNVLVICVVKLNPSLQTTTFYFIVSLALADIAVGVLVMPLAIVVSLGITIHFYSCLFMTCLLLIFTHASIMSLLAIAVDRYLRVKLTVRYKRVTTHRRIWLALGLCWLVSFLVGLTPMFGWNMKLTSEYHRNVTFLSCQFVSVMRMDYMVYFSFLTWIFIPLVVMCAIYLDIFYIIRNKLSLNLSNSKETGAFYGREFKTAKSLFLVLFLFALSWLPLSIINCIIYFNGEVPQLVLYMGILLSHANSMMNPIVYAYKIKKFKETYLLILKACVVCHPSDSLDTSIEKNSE
Protein mono-ADP-ribosyltransferase PARP15, sequence (Q460N3 whole entry, looked up, the tested form may be a part): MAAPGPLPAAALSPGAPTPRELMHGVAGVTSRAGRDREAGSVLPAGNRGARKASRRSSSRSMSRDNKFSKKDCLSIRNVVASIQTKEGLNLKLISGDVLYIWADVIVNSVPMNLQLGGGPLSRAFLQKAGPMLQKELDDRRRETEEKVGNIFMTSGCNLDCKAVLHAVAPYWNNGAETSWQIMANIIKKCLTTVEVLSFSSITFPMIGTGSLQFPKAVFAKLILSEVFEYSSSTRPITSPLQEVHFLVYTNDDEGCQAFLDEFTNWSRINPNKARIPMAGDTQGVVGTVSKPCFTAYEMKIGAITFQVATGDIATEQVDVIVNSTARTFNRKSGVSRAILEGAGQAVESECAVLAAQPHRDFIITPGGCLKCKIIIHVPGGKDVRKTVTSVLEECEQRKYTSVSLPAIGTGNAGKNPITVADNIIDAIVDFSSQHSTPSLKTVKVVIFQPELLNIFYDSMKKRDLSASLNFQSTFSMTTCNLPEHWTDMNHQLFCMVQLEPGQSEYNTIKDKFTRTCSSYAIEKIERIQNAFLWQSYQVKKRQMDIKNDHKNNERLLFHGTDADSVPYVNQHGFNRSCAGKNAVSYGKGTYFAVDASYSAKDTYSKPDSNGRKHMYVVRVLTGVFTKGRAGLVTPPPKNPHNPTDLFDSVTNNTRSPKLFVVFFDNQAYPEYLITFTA

What does the source list for Cc1ccc2c(=O)[nH]c(-c3ccc(C(C)(C)O)cc3)cn12?
IC50 [1]: 1.4 nM; half-life [2]: 35.6 min; Vd [3]: 3.15 L/kg; QH [4]: 56%; bioavailability [5]: 6.7%; half-life [6]: 20.4 min; half-life [7]: 414 min; half-life [8]: 58.6 min; IC50 [9]: 67 nM; IC50 (Adenosine receptor A3): 10000 nM; IC50 [10]: 0.9 nM; QH [11]: 130%; fraction unbound [12]: 0.096; inhibition [13]: inactive; IC50 [14]: > 10000 nM; Activity (SW480): inactive; QH [15]: 17%; bioavailability [16]: 37%; QH [17]: 50%; Activity [18]: Toxic; IC50 [19]: > 10000 nM; bioavailability [20]: 77%; inhibition [21]: Active; QH [22]: 99%; Activity (DLD-1): inactive; IC50 [23]: 140 nM; Activity (SW-620): inactive
